# In patent publication US20230031406A1, “COMPOUNDS AND COMPOSITIONS FOR TREATING CONDITIONS ASSOCIATED WITH NLRP ACTIVITY” (Novartis AG, priority 2018, published 2023):
# pIC50: −log10 of the molar value.
# Test system: PMA-differentiated THP-1 cells
# Assay: IL-1β production in PMA-differentiated THP-1 cells stimulated with gramicidin (hTHP-1 assay containing 2% fetal bovine serum; Procedures 1 and 2)
# Assay type: cell-based, human
# Conditions: Homo sapiens, THP-1, Table B3; hTHP-1 assay, 2% fetal bovine serum; class symbols; read-out: IC50
# Procedure, shortened: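 Compound titrations in 0.37% final DMSO were added to THP-1 cells that had been plated after 16-18 h PMA treatment, 50,000 per well in 2% FBS. One hour later the cells received gramicidin (5 μM, 2 h) and were centrifuged. HTRF detected IL-1β in the collected supernatants.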
row,Structure (SMILES),pIC50
1,"C[C@@](O)(CO)c1cc(F)c(S(N)(=O)=NC(=O)Nc2c3c(nc4c2CCC42CC2)CCC3)s1 (stereo partly drawn) [Example 607, 5-((R)-1,2-dihydroxypropan-2-yl)-3-fluoro-N′-((1′,5′,6′,7′-tetrahydro-2′H-spiro[cyclopropane-1,3′-dicyclopenta[b,e]pyridin]-8′-yl)carbamoyl)thiophene-2-sulfonimidamide]",6.00 to 6.70
2,"C[C@](O)(CO)c1cc(F)c(S(N)(=O)=NC(=O)Nc2c3c(nc4c2CCC42CC2)CCC3)s1 (stereo partly drawn) [Example 608, 5-((S)-1,2-dihydroxypropan-2-yl)-3-fluoro-N′-((1′,5′,6′,7′-tetrahydro-2′H-spiro[cyclopropane-1,3′-dicyclopenta[b,e]pyridin]-8′-yl)carbamoyl)thiophene-2-sulfonimidamide]",6.70 to 7.40
3,"CC(C)(O)c1csc(S(N)(=O)=NC(=O)Nc2c3c(nc(C(F)(F)F)c2C2CC2)CCC3)c1 (centres unmarked) [Example 609, N′-((3-cyclopropyl-2-(trifluoromethyl)-6,7-dihydro-5H-cyclopenta[b]pyridin-4-yl)carbamoyl)-4-(2-hydroxypropan-2-yl)thiophene-2-sulfonimidamide]",6.00 to 6.70
4,CC(C)(O)c1cc(F)c(S(N)(=O)=NC(=O)Nc2c3c(nc(C(F)(F)F)c2C2CC2)CCC3)s1 (centres unmarked) [Example 610],6.00 to 6.70
5,"Cc1c(C2(F)CC2)nc2c(c1NC(=O)N=S(N)(=O)c1cc(C(C)(C)O)cs1)CCC2 (centres unmarked) [Example 611, N′-((2-(1-fluorocyclopropyl)-3-methyl-6,7-dihydro-5H-cyclopenta[b]pyridin-4-yl)carbamoyl)-4-(2-hydroxypropan-2-yl)thiophene-2-sulfonimidamide]",5.30 to 6.00
6,"Cc1c(C2(F)CC2)nc2c(c1NC(=O)N=S(N)(=O)c1sc(C(C)(C)O)cc1F)CCC2 (centres unmarked) [Example 612, 3-Fluoro-N′-((2-(1-fluorocyclopropyl)-3-methyl-6,7-dihydro-5H-cyclopenta[b]pyridin-4-yl)carbamoyl)-5-(2-hydroxypropan-2-yl)thiophene-2-sulfonimidamide]",5.30 to 6.00
7,"CCn1cc(F)c(S(N)(=O)=NC(=O)Nc2c3c(nc4c2CC[C@@H]4C)CCC3)n1 (stereo partly drawn) [Example 616, 1-Ethyl-4-fluoro-N′-(((S)-3-methyl-1,2,3,5,6,7-hexahydrodicyclopenta[b,e]pyridin-8-yl)carbamoyl)-1H-pyrazole-3-sulfonimidamide]",6.00 to 6.70
8,"Cc1c(CC(F)(F)F)nc2c(c1NC(=O)N=S(N)(=O)c1nn(C(F)F)cc1F)CCC2 (centres unmarked) [Example 617, 1-(Difluoromethyl)-4-fluoro-N′-((3-methyl-2-(2,2,2-trifluoroethyl)-6,7-dihydro-5H-cyclopenta[b]pyridin-4-yl)carbamoyl)-1H-pyrazole-3-sulfonimidamide]",4.52 to 5.30
9,"CCn1cc(F)c(S(N)(=O)=NC(=O)Nc2c3c(nc(C4CC4)c2C2CC2)CCC3)n1 (centres unmarked) [Example 618, N′-((2,3-dicyclopropyl-6,7-dihydro-5H-cyclopenta[b]pyridin-4-yl)carbamoyl)-1-ethyl-4-fluoro-1H-pyrazole-3-sulfonimidamide]",6.70 to 7.40
10,"CCn1cc(F)c(S(N)(=O)=NC(=O)Nc2c(C)c(CC(F)(F)F)nc3c2CCC3)n1 (centres unmarked) [Example 619, 1-Ethyl-4-fluoro-N′-((3-methyl-2-(2,2,2-trifluoroethyl)-6,7-dihydro-5H-cyclopenta[b]pyridin-4-yl)carbamoyl)-1H-pyrazole-3-sulfonimidamide]",5.30 to 6.00
11,"Cc1nc2c(c(NC(=O)N=S(N)(=O)c3nn(C(F)F)cc3F)c1-c1ccccc1)CCC2 (centres unmarked) [Example 620, 1-(Difluoromethyl)-4-fluoro-N′-((2-methyl-3-phenyl-6,7-dihydro-5H-cyclopenta[b]pyridin-4-yl)carbamoyl)-1H-pyrazole-3-sulfonimidamide]",6.00 to 6.70
12,"CC1(C)CCc2c1nc1c(c2NC(=O)N=S(N)(=O)c2nn(C(F)F)cc2F)CCC1 (centres unmarked) [Example 621, 1-(Difluoromethyl)-N′-((3,3-dimethyl-1,2,3,5,6,7-hexahydrodicyclopenta[b,e]pyridin-8-yl)carbamoyl)-4-fluoro-1H-pyrazole-3-sulfonimidamide]",6.70 to 7.40
13,"NS(=O)(=NC(=O)Nc1c2c(nc3c1CCC31CC1)CCC2)c1ccn(CCO)n1 (centres unmarked) [Example 622, 1-(2-Hydroxyethyl)-N′-((1′,5′,6′,7′-tetrahydro-2′H-spiro[cyclopropane-1,3′-dicyclopenta[b,e]pyridin]-8′-yl)carbamoyl)-1H-pyrazole-3-sulfonimidamide]",5.30 to 6.00
14,"CC1(C)CCc2c1nc1c(c2NC(=O)N=S(N)(=O)c2cc([C@](C)(O)CO)cs2)CCC1 (stereo partly drawn) [Example 623, 4-((S)-1,2-dihydroxypropan-2-yl)-N′-((3,3-dimethyl-1,2,3,5,6,7-hexahydrodicyclopenta[b,e]pyridin-8-yl)carbamoyl)thiophene-2-sulfonimidamide]",6.00 to 6.70
15,"CC1(C)CCc2c1nc1c(c2NC(=O)N=S(N)(=O)c2cc([C@@](C)(O)CO)cs2)CCC1 (stereo partly drawn) [Example 624, 4-((R)-1,2-dihydroxypropan-2-yl)-N′-((3,3-dimethyl-1,2,3,5,6,7-hexahydrodicyclopenta[b,e]pyridin-8-yl)carbamoyl)thiophene-2-sulfonimidamide]",6.00 to 6.70
16,"CC1(C)CCc2nc3c(c(NC(=O)N=S(N)(=O)c4ccc([C@](C)(O)COCCOCc5ccccc5)s4)c21)CCC3 (stereo partly drawn) [Example 625, 5-((R)-1-(2-(benzyloxy)ethoxy)-2-hydroxypropan-2-yl)-N′-((1,1-dimethyl-1,2,3,5,6,7-hexahydrodicyclopenta[b,e]pyridin-8-yl)carbamoyl)thiophene-2-sulfonimidamide]",5.30 to 6.00
17,"CC1(C)CCc2c1nc1c(c2NC(=O)N=S(N)(=O)c2cc(CO)n(CCO)n2)CCC1 (centres unmarked) [Example 626, N′-((3,3-dimethyl-1,2,3,5,6,7-hexahydrodicyclopenta[b,e]pyridin-8-yl)carbamoyl)-1-(2-hydroxyethyl)-5-(hydroxymethyl)-1H-pyrazole-3-sulfonimidamide]",6.00 to 6.70
18,"CC(=O)c1csc(S(N)(=O)=NC(=O)Nc2c3c(nc4c2CC[C@H]4C)CCC3)c1 (stereo partly drawn) [Example 627, 4-Acetyl-N′-(((R)-3-methyl-1,2,3,5,6,7-hexahydrodicyclopenta[b,e]pyridin-8-yl)carbamoyl)thiophene-2-sulfonimidamide]",6.00 to 6.70
19,"CCn1cc(F)c(S(N)(=O)=NC(=O)Nc2c3c(nc4c2CCC42CC2)CCC3)n1 (centres unmarked) [Example 628, 1-Ethyl-4-fluoro-N′-((1′,5′,6′,7′-tetrahydro-2′H-spiro[cyclopropane-1,3′-dicyclopenta[b,e]pyridin]-8′-yl)carbamoyl)-1H-pyrazole-3-sulfonimidamide]",6.70 to 7.40
20,"CCc1ncc(S(N)(=O)=NC(=O)Nc2c3c(nc4c2CC[C@H]4C)CCC3)s1 (stereo partly drawn) [Example 629, 2-Ethyl-N′-(((R)-3-methyl-1,2,3,5,6,7-hexahydrodicyclopenta[b,e]pyridin-8-yl)carbamoyl)thiazole-5-sulfonimidamide]",6.00 to 6.70
21,"CC(C)(O)c1cccc(S(N)(=O)=NC(=O)Nc2c3c(nc4c2CCC4(C)C)CCC3)n1 (centres unmarked) [Example 630, N′-((3,3-dimethyl-1,2,3,5,6,7-hexahydrodicyclopenta[b,e]pyridin-8-yl)carbamoyl)-6-(2-hydroxypropan-2-yl)pyridine-2-sulfonimidamide]",4.52 to 5.30
22,"CCc1ccsc1S(N)(=O)=NC(=O)Nc1c2c(nc3c1CC[C@H]3C)CCC2 (stereo partly drawn) [Example 631, 3-Ethyl-N′-(((R)-3-methyl-1,2,3,5,6,7-hexahydrodicyclopenta[b,e]pyridin-8-yl)carbamoyl)thiophene-2-sulfonimidamide]",5.30 to 6.00
23,"CCn1ccc(S(N)(=O)=NC(=O)Nc2c3c(nc(C4CC4)c2C2CC2)CCC3)n1 (centres unmarked) [Example 632, N′-((2,3-dicyclopropyl-6,7-dihydro-5H-cyclopenta[b]pyridin-4-yl)carbamoyl)-1-ethyl-1H-pyrazole-3-sulfonimidamide]",5.30 to 6.00
24,"Cc1c(C(F)(F)F)nc2c(c1NC(=O)N=S(N)(=O)c1ccn(C)n1)CCC2 (centres unmarked) [Example 633, 1-Methyl-N′-((3-methyl-2-(trifluoromethyl)-6,7-dihydro-5H-cyclopenta[b]pyridin-4-yl)carbamoyl)-1H-pyrazole-3-sulfonimidamide]",4.52 to 5.30
25,"CCn1ccc(S(N)(=O)=NC(=O)Nc2c(C)c(C(F)(F)F)nc3c2CCC3)n1 (centres unmarked) [Example 634, 1-Ethyl-N′-((3-methyl-2-(trifluoromethyl)-6,7-dihydro-5H-cyclopenta[b]pyridin-4-yl)carbamoyl)-1H-pyrazole-3-sulfonimidamide]",5.30 to 6.00

# Same assay, conditions: Homo sapiens, THP-1, Table B3; hTHP-1 assay, 2% fetal bovine serum; numeric values; read-out: IC50
row,Structure (SMILES),pIC50
1,"CCOC(=O)c1nc2c(c(NC(=O)N=S(=O)(N[Si](C)(C)C(C)(C)C)c3cnc(C(C)(C)O)s3)c1C)CCC2 (centres unmarked) [Example 613, Ethyl 4-(3-(((tert-butyldimethylsilyl)amino)(2-(2-hydroxypropan-2-yl)thiazol-5-yl)(oxo)-l6-sulfaneylidene)ureido)-3-methyl-6,7-dihydro-5H-cyclopenta[b]pyridine-2-carboxylate]",< 4.52
2,"CC(C)(O)c1ncc(S(N)(=O)=NC(=O)Nc2cc(C(F)F)nc3c2CCC3)s1 (centres unmarked) [Example 614, N′-((2-(difluoromethyl)-6,7-dihydro-5H-cyclopenta[b]pyridin-4-yl)carbamoyl)-2-(2-hydroxypropan-2-yl)thiazole-5-sulfonimidamide]",< 4.52
3,"CC(C)(O)c1cnc(S(N)(=O)=NC(=O)Nc2c3c(nc4c2CCC4O)CCC3)s1 (centres unmarked) [Example 635, N′-((3-hydroxy-1,2,3,5,6,7-hexahydrodicyclopenta[b,e]pyridin-8-yl)carbamoyl)-5-(2-hydroxypropan-2-yl)thiazole-2-sulfonimidamide]",< 4.52

# Same assay, conditions: Table B3; hTHP-1 assay, 2% fetal bovine serum; class symbols; read-out: IC50
row,Structure (SMILES),pIC50
1,"NS(=O)(=NC(=O)Nc1c2c(nc(C(F)(F)F)c1C1CC1)CCC2)c1nn(C(F)F)cc1F (centres unmarked) [Example 615, N′-((3-cyclopropyl-2-(trifluoromethyl)-6,7-dihydro-5H-cyclopenta[b]pyridin-4-yl)carbamoyl)-1-(difluoromethyl)-4-fluoro-1H-pyrazole-3-sulfonimidamide]",6.00 to 6.70
